Structures can show the parent of a compound that is named as a salt. Where two headings read alike, the source gives them in different places.
What was measured:
[1] = Cell toxicity in HIV-1 infected CEM-GXR cultures (forward/side scatter); assay type: cell-based; conditions: human, HIV-1NL4-3-infected CEM-GXR cells (CD4+ T-lymphocyte line), Day 4
Protocol: (§1) CEM-GXR cells are an immortalized CD4+ T-lymphocyte line engineered that naturally express the HIV-1 coreceptor CXCR4 and have been further engineered to express the HIV-1 co-receptor CCR5 and a Tat-driven LTR-GFP expression cassette. As such, intracellular GFP expression indicates HIV-1 infection. Cultures of 10^5 CEM-GXR cells were seeded into 96-well plates with RPMI-1640 media (Sigma) supplemented with penicillin/streptomycin plus 20% fetal calf serum (R20+), infected with HIV-1 at a multiplicity of infection of 0.03 (to achieve 3% infected cells on Day 2), and incubated at 37°C and 5% CO2. 24 hours later, cells were pelleted at 750 g and resuspended in R20+ containing compound or 0.1% DMSO. […] Cells were then incubated at 37°C and 5% CO2 for an additional 72 h. 5,000 cells from each culture were measured for cell toxicity and GFP expression by flow cytometry. Flow cytometry data were analyzed using FlowJo v. 8.8.7 software (FlowJo LLC, Ashland, OR). […] Background GFP expression in uninfected cultures was set at 0.05% GFP-positive cells. For each experiment, all data points were obtained in triplicate. All data are reported as the mean ± s.e.m. from at least 3 independent experiments performed with different virus stocks and/or performed on different days. However, all experiments that compare HIV-1NL4-3 and mutant HIV-1 were performed in parallel. EC50 and CC50 values for each compound were calculated from at least four concentrations. Statistical analyses were performed using Student’s unpaired t test, with a p value < 0.05 plus a Bonferroni correction to adjust for multiple comparisons considered significant.
(§2) To assess the effects of these eight compounds on cell viability and HIV-1 replication, we infected a GFP-reporter CEM CD4+ T cell line (CEM-GXR) with the NL4-3 strain of HIV-1 (HIV-1NL4-3). Briefly, cells were infected with HIV-1NL4-3 at a multiplicity of infection of 0.03 (Day 0), followed by removal of HIV-1 and addition of compound (or 0.1% DMSO vehicle control) 24 hours later (Day 1) and incubation for an additional 72 hours to allow HIV-1 spread (Days 2–4). On Days 2 and/or 4, the percent HIV-1 infected (i.e., GFP-expressing) cells was measured by flow cytometry. Cell viability was assessed by measuring the percentage of cells displaying normal forward- and side-scatter parameters in drug-treated, HIV-1 infected cultures compared to 0.1% DMSO-treated, HIV-1 infected control cultures. […] HIV-1NL4-3 replication was unaffected by the presence of 0.1% DMSO vehicle control (Fig. 2B).

HIV-1NL4-3 [2] = assay: microbe, parasite or virus in culture; assay type: cell-based; conditions: for HIV-1 inhibition in the viral replication assay (in words): up to 100 μM; for EC50: read-out: HIV-1NL4-3 inhibition (EC50); for replication of HIV-1NL4-3 in CEM-GXR cells (in words): 0.1 μM
Protocol: as §1, §2

HIV-1INT = HIV-1INT replication in CEM-GXR cells; assay type: cell-based; conditions: 0.1 μM, CEM-GXR cells, Day 4
Protocol: (§3) HIV-1Δvpu was constructed by digesting plasmid p210-13 3’ Δ-vpu with EcoRI and NheI enzymes. The resulting DNA fragment was then ligated into wild-type pNL4-3 plasmid digested with the same enzymes. HIV-1Δvpu and HIV-1NL4-3 viral stocks were prepared by transfection of HEK-293T cells, as previously described. Patient plasma-HIV-1 RNA sequences were analyzed for resistance mutations using the HIV Drug Resistance Database Genotype Resistance Interpretation Algorithm (hivdb.stanford.edu). Recombinant HIV-1NL4-3 expressing patient-derived HIV-1 sequences harboring resistance mutations to protease and reverse transcriptase inhibitors (HIV-1PR+RT), reverse transcriptase inhibitors (HIV-1RT), and integrase inhibitors (HIV-1INT) were generated by homologous recombination following co-transfection as reported.
as §1
(§4) To investigate the mechanisms by which ixoratannin A-2 and boldine may block HIV-1 replication, we used a previously-reported HIV-1NL4-3 strain lacking the Vpu coding region (HIV-1Δvpu). We also constructed recombinant HIV-1NL4-3 strains harboring protease, reverse transcriptase, and/or integrase sequences of HIV-1 strains from patients who had developed resistance to the protease inhibitor Indinavir (IND), the non-nucleoside reverse transcriptase inhibitor Efavirenz (EFV), and/or the integrase inhibitor Raltegravir (RAL) (denoted HIV-1PR+RT, HIV-1RT, and HIV-1INT, respectively). Re-sequencing of the recombinant viruses confirmed the presence of multiple mutations known to confer resistance to IND, EFV, and/or RAL (Table 2).

HIV-1Δvpu = HIV-1Δvpu replication in CEM-GXR cells; assay type: cell-based; conditions: 0.1 μM, Day 4
Protocol: as §3, §1, §4

HIV-1RT = assay: microbe, parasite or virus in culture; assay type: cell-based; conditions: 0.1 μM, CEM-GXR cells, Day 4
Protocol: CEM-GXR cells are an immortalized CD4+ T-lymphocyte line engineered that naturally express the HIV-1 coreceptor CXCR4 and have been further engineered to express the HIV-1 co-receptor CCR5 and a Tat-driven LTR-GFP expression cassette. As such, intracellular GFP expression indicates HIV-1 infection [26]. Cultures of 10^5 CEM-GXR cells were seeded into 96-well plates with RPMI-1640 media (Sigma) supplemented with penicillin/streptomycin plus 20% fetal calf serum (R20+), infected with HIV-1 at a multiplicity of infection of 0.03 (to achieve 3% infected cells on Day 2), and incubated at 37°C and 5% CO2. 24 hours later, cells were pelleted at 750 g and resuspended in R20+ containing compound or 0.1% DMSO. […] Cells were then incubated at 37°C and 5% CO2 for an additional 72 h. 5,000 cells from each culture were measured for cell toxicity and GFP expression by flow cytometry. […] Background GFP expression in uninfected cultures was set at 0.05% GFP-positive cells. For each experiment, all data points were obtained in triplicate. All data are reported as the mean ± s.e.m. from at least 3 independent experiments performed with different virus stocks and/or performed on different days. […] EC50 and CC50 values for each compound were calculated from at least four concentrations. Statistical analyses were performed using Student’s unpaired t test, with a p value < 0.05 plus a Bonferroni correction to adjust for multiple comparisons considered significant.

HIV-1PR+RT = HIV-1PR+RT replication in CEM-GXR cells; assay type: cell-based; conditions: 0.1 μM, CEM-GXR cells, Day 4
Protocol: as §3, §1, §4

[3] = system: HCV J4(1b)/JFH1(2a) chimera; assay: HCV replication assay in Huh-7.5 cells (NS5A flow cytometry); assay type: cell-based; conditions: Hepatitis C virus, Huh7.5, 72 h, read-out: inhibition of HCV replication
Protocol: The intergenotypic chimeric HCV used in this study—Bi-Gluc-J4(1b)/JFH1(2a) containing cell culture adaptive mutations in NS2 (T2996C) and NS3 (A4827T)—was previously described and subsequently modified to express Gaussia luciferase in the first cistron. HCV stocks used for infection were generated by electroporation of in vitro transcribed RNA into Huh-7.5.1 cells and pooling of supernatants harvested between 60–96 hr post-electroporation. HCV infectivity was determined by limiting dilution assay as previously described.
HCV cell culture was performed as described previously. Briefly, 4*10^4 Huh-7.5 cells were seeded into 24-well plates and incubated at 37°C and 5% CO2 overnight. Cells were then infected with HCV (multiplicity of infection = 0.3) for 6 hours, followed by removal of HCV and incubation with fresh medium containing compounds at stated concentrations. Cultures were then incubated for 72 hours, with no more than 0.1% DMSO present in culture medium. Cells were then trypsinized, resuspended in culture medium, and stained with the 9E10 alexa-fluor-conjugated antibody to NS5A [27]. Cells were fixed and analyzed for NS5A fluorescence by flow cytometry, and data were analyzed using FlowJo software. […] For each culture, NS5A fluorescence was determined as the percent gated cells relative to percent gated cells in infected cultures plus 0.1% DMSO. All experiments were performed in at least duplicate in at least two independent experiments.
We therefore assessed the effects of ixoratannin A-2, boldine, and BIT-225 on replication of HCV, which also encodes a viral ion channel and protease. Using an established cell culture system, Huh-7.5 cells were infected with an intergenotypic chimera between the J4 (genotype 1b) and JFH1 (genotype 2a) strain of HCV for 6 hours, followed by incubation with fresh medium containing compounds at defined concentrations. Infected cells were then incubated for an additional 72 hours. NS5A expression, a marker of HCV infection, was then detected by flow cytometry.

CEM-GXR cells = assay: Cell toxicity in HIV-1 infected CEM-GXR cultures (forward/side scatter); assay type: cell-based; conditions: HIV-1NL4-3-infected CEM-GXR cells, Day 4
Protocol: as §1, §2

[4] = system: Madin-Darby bovine kidney cells; design: method as in PMID 20832370; conditions: read-out: CC50 in bovine viral diarrhea virus-infected Madin-Darby bovine kidney cells; cited from earlier work
in vitro = assay type: cell-based; conditions: human
HIV-1NL4-3 [5] = assay: HIV-1 replication assay in PBMCs (p24Gag ELISA); assay type: cell-based; conditions: 10 μM, Day 12
Protocol: PBMCs from HIV-1 negative subjects, purchased commercially (StemCell Technologies, Vancouver, Canada), were maintained in RPMI-1640 media (Sigma) supplemented with penicillin/streptomycin plus 10% fetal calf serum (R10+). 72 h prior to viral infection, PBMCs were stimulated by addition of 5 μg/mL phytohaemaglutanin (PHA) (Day 0) and maintained in R10+ medium supplemented with 100 units/mL human IL-2. At Day 3 following cellular activation, 3x10^5 cells were infected with HIV-1NL4-3 at a multiplicity of infection of 0.003 (0.3% infected cells) and incubated at 37°C for 6h, followed by wash and re-suspension in fresh R10+ medium supplemented with 100 units/mL human IL-2 and with or without compounds at defined concentrations. Culture supernatants were collected and replaced with fresh medium supplemented with human IL-2 every 3 days (i.e., Days 6, 9, and 12) with or without fresh compounds. Viral replication at day 12 was monitored by measuring cell culture supernatant levels of p24^Gag by ELISA (XpressBio, Frederick, MD) following manufacturer’s instructions.

[6] = PBMC cytotoxicity (ViaCount Assay); assay type: cell-based; conditions: human, PHA-activated PBMCs; Day 5, ViaCount
Protocol: Cytotoxicity was determined by ViaCount Assay (Millipore). Briefly, Day 3 PHA-activated PBMCs (3*10^5) were cultured in R10+ supplemented with 100 units/mL human IL-2 in the presence of 0.1% DMSO or compounds at defined concentrations. At Day 5, 15 μL of each PBMC culture was mixed with Guava ViaCount Reagent at a 1:10 dilution. Data were collected using a Guava EasyCyte HT Flow Cytometer (Millipore).

SupT1 and CEM-SS cells = conditions: cited from earlier work
[7] = system: monocyte derived macrophages; conditions: cited from earlier work
[8] = Human immunodeficiency virus 1, 96 h, CEM-GXR cells, Day 4

Structure (SMILES)	CC50 at 72 h [1] [µM]	HIV-1 inhibition in the viral replication assay (in words) (HIV-1NL4-3 [2]; CEM-GXR cells)	EC50 (HIV-1NL4-3 [2]; [8]) [µM]	replication of HIV-1Δvpu in CEM-GXR cells (in words) (HIV-1Δvpu)	replication of HIV-1NL4-3 in CEM-GXR cells (in words) (HIV-1NL4-3 [2]; Day 4)	also measured
O=C(O[C@@H]1Cc2c(O)cc(O)cc2O[C@@H]1c1ccc(O)c(O)c1)c1cc(O)c(O)c(O)c1 [ECG, epicatechin gallate]	> 100	did not observe antiviral activity	> 100	–	–	–
Cc1nnc(C(=O)NC(C)(C)c2nc(C(=O)NCc3ccc(F)cc3)c(O)c(=O)n2C)o1 [RAL, Raltegravir, reference compound]	–	–	–	inhibited	inhibited	HIV-1INT replication fold higher than HIV-1NL4-3 (HIV-1INT): 1.7 fold
O=C1Nc2ccc(Cl)cc2[C@@](C#CC2CC2)(C(F)(F)F)O1 [EFV, Efavirenz, reference compound]	–	–	–	inhibited	inhibited	HIV-1RT replication fold greater than HIV-1NL4-3 (HIV-1RT): 3.4 fold; HIV-1PR+RT replication fold higher than HIV-1NL4-3 (HIV-1PR+RT): 2.6 fold
CC(C)(C)NC(=O)[C@@H]1CN(Cc2cccnc2)CCN1C[C@@H](O)C[C@@H](Cc1ccccc1)C(=O)N[C@H]1c2ccccc2C[C@H]1O [IND, Indinavir, reference compound]	–	–	–	inhibited	inhibited	HIV-1PR+RT replication fold higher than HIV-1NL4-3 (HIV-1PR+RT): 2.7 fold
CC(N)C12CC3CC(CC(C3)C1)C2 (stereo not drawn) [rimantadine, rimantadine hydrochloride, reference compound]	–	–	–	–	–	inhibition at 50 µM [3]: 40.7%
CC(=O)c1c(O)cc(OC2OC(O)C(O)C(O)C2O)c(-c2c(C)cc(O)c3c2C(=O)c2cccc(O)c2C3=O)c1O (stereo not drawn) [2MA, 1-(3-acetyl-2,4-dihydroxy-6-((3,4,5,6-tetrahydroxytetrahydro-2H-pyran-2-yl)oxy)phenyl)-4,5-dihydroxy-2-methylanthracene-9,10-dione]	50.9	did not inhibit HIV-1	> 100	–	–	–
O=C1OCc2cc3cccc(OC4OC(CO)C(O)C(O)C4O)c3c(O)c21 (stereo not drawn) [geshoidin]	> 10	did not inhibit HIV-1	–	–	–	EC50 (HIV-1NL4-3 [2]; Human immunodeficiency virus 1, CEM-GXR, 96 h): > 100 µM
O=c1oc2c(O)c(O)cc3c(=O)oc4c(O)c(O)cc1c4c23 [EA, ellagic acid]	52.3	did not observe these activities	> 100	–	–	–
COc1cc2ccc3c(OC)c(O)ccc3c2c(OC)c1O [PA, 1,5,7-trimethoxyphenanthrene-2,6-diol]	< 30	–	–	–	–	CC50 (CEM-GXR cells): 26.8 µM
Cn1cc(-c2cccc3cc(C(=O)NC(=N)N)ccc23)cn1 [BIT-225, reference compound]	10.7	–	–	–	–	CC50 [4]: 11.6 µM; inhibition at 30 µM [3]: 37.5%; CC50 at 72 h (in vitro): 52.9 µM; reduced HIV-1 replication in PBMCs (p24Gag) (HIV-1NL4-3 [5]): 31.8%; CC50 [6]: 12.8 µM; CC50 (SupT1 and CEM-SS cells): 32 to 67 µM; CC50 [7]: 167 to 284 µM

From PMC4382154, “Screening of the Pan-African Natural Product Library Identifies Ixoratannin A-2 and Boldine as Novel HIV-1 Inhibitors” (PLoS ONE, 2015)
